According to patent EP0059645A1, “Method and kit for identification of beta-lactamases” (NATIONAL RESEARCH DEVELOPMENT CORPORATION, priority 1981, dated 1982):
Where two headings read alike, the source gives them in different places. Marks after values point to notes of the source that are not given here.

What was measured:
[1] = system: O=C(Cc1cccs1)N[C@@H]1C(=O)N2C(C(=O)O)=C(C=Cc3ccc([N+](=O)[O-])cc3[N+](=O)[O-])CS[C@H]12; experiment: purified protein, by the assay type; details: pH 7.0; 37.0 °C
[2] = system: O=C(Cc1cccs1)N[C@@H]1C(=O)N2C(C(=O)O)=C(C=Cc3ccc([N+](=O)[O-])cc3[N+](=O)[O-])CS[C@H]12; experiment: purified protein, by the assay type; details: pH 7.0; 37.0 °C; remark: listed apart in the source
OXA-1 [3] = biological target: T1, OXA-1 (Escherichia coli, UniProt P13661); experiment: Competitive assay with nitrocefin (RSAI); type: biochemical, E. coli 1527E; set-up: the beta-lactamase has to be extracted from the cells for the purpose of the present invention; made in house; host or cells: E. coli 1527E according to the earlier reading (crude cell extract)
PSE-4 = PSE-4 (Pseudomonas aeruginosa, UniProt P16897); experiment: Competitive assay with nitrocefin (RSAI); type: biochemical, Ps.aerug. 1559E; set-up: Normally, therefore, the beta-lactamase has to be extracted from the cells for the purpose of the present invention; endogenous in cells
PSE-2 = PSE-2 (Pseudomonas aeruginosa, UniProt P14489); experiment: Competitive assay with nitrocefin (RSAI); type: biochemical, Ps.aerug. 1973E; set-up: Normally, therefore, the beta-lactamase has to be extracted from the cells for the purpose of the present invention; endogenous in cells
PSE-3 = experiment: Competitive assay with nitrocefin (RSAI); type: biochemical, Ps.aerug. 1920E
[4] = biological target: T2, Chromosomal, constitutive beta-lactamase enzyme (Enterobacter cloacae, UniProt P05364); experiment: Competitive assay with nitrocefin (RSAI); type: biochemical, E. cloacae
T2 construct: Normally, therefore, the beta-lactamase has to be extracted from the cells for the purpose of the present invention; endogenous in cells

OXA-3 = OXA-3 (Pseudomonas aeruginosa, UniProt Q51429); experiment: Competitive assay with nitrocefin (RSAI); type: biochemical, E. coli R57B; set-up: Normally, therefore, the beta-lactamase has to be extracted from the cells for the purpose of the present invention; endogenous in cells
HMS-1 = experiment: Competitive assay with nitrocefin (RSAI); type: biochemical, E. coli 1946
TEM-1 = TEM-1 (Escherichia coli, UniProt P62593); experiment: Competitive assay with nitrocefin (RSAI); type: biochemical, E. coli 2136E; set-up: the beta-lactamase has to be extracted from the cells for the purpose of the present invention; made in house; host or cells: E. coli 2136E (plasmid-bearing strain; crude cell extract)
[5] = biological target: T3, Chromosomal, hyper-induced beta-lactamase enzyme (Escherichia coli, UniProt P00811); experiment: Competitive assay with nitrocefin (RSAI); type: biochemical, E. coli SNU35; set-up: Normally, therefore, the beta-lactamase has to be extracted from the cells for the purpose of the present invention; endogenous in cells; host or cells: E. coli SNU 35 (artificially produced strain)
K10317 = experiment: Competitive assay with nitrocefin (RSAI); type: biochemical, K.aerog. 10317
PSE-1 = PSE-1 (Pseudomonas aeruginosa, UniProt Q03170); experiment: Competitive assay with nitrocefin (RSAI); type: biochemical, Ps.aerug. 1937E; set-up: Normally, therefore, the beta-lactamase has to be extracted from the cells for the purpose of the present invention; endogenous in cells
[6] = system: "unknown" (unidentified) beta-lactamase; experiment: Competitive assay with nitrocefin (RSAI) on an unidentified beta-lactamase; details: extract by the method of Example 6, assay as in Example 1; * = showed irreversible inhibition
OXA-2 [7] = biological target: T4, OXA-2 (Escherichia coli, UniProt P0A1V9); experiment: Competitive assay with nitrocefin (RSAI); type: biochemical, E. coli R46; set-up: the beta-lactamase has to be extracted from the cells for the purpose of the present invention; made in house; host or cells: E. coli carrying R46 according to the earlier reading (crude cell extract)
TEM-2 = TEM-2 (Escherichia coli, UniProt P62593, Q37K); experiment: Competitive assay with nitrocefin (RSAI); type: biochemical, E. coli 1725E
K1073 = experiment: Competitive assay with nitrocefin (RSAI); type: biochemical, Klebsiella 1073
[8] = biological target: T5, Chromosomal, induced beta-lactamase enzyme (Pseudomonas aeruginosa, UniProt P24735); experiment: Competitive assay with nitrocefin (RSAI); type: biochemical, Ps.aerug. 1937E + ampicillin
T5 construct: Normally, therefore, the beta-lactamase has to be extracted from the cells for the purpose of the present invention; endogenous in cells; host or cells: Pseudomonas aeruginosa 1937E grown with ampicillin

K17 = experiment: Competitive assay with nitrocefin (RSAI); type: biochemical, Klebsiella 17
SHV-1 = SHV-1 (Escherichia coli, UniProt P0AD63); experiment: Competitive assay with nitrocefin (RSAI); type: biochemical, E. coli 2008E; set-up: the beta-lactamase has to be extracted from the cells for the purpose of the present invention; made in house; host or cells: E. coli 2008E (crude cell extract)
[9] = biological target: T3, Chromosomal, hyper-induced beta-lactamase enzyme; experiment: Hydrolysis of nitrocefin by enzyme (Michaelis constant); details: read-out: Km (Nitrocefin); enzyme No. 9
OXA-1 [10] = biological target: T1, OXA-1; experiment: Cleavage of chromogenic substrate by enzyme (PADAC example); details: PADAC monitored at 570 nm; same enzyme preparation for nitrocefin
OXA-2 [11] = biological target: T4, OXA-2; experiment: Hydrolysis of nitrocefin by enzyme (Michaelis constant); details: read-out: Km (Nitrocefin); enzyme No. 6

(Escherichia coli) showed a Km [1] of 16 µg/mL and a Km [2] of 9 µg/mL.

`CO[C@@]1(NC(=O)C(C(=O)O)c2ccc(O)cc2)C(=O)N2C(C(=O)O)=C(CSc3nnnn3C)CO[C@@H]21` (some centres unmarked) [Moxalactam] was tested, and the RSAI (OXA-1 [3]) was 4*, the RSAI (PSE-4) was 4.3 and the RSAI (PSE-2) was 8.2. For the same compound, the RSAI (PSE-3) was 7, the RSAI [4] was 0.0001* and the RSAI ([4]; listed as moxalactam) was 0.0001. For the same compound, the RSAI (OXA-3) was 1*, the RSAI (HMS-1) was 0.3* and the RSAI (TEM-1) was 40*. The RSAI [5] was 0.002*, the RSAI ([5]; listed as moxalactam) was 0.002 and the RSAI (K10317) was 60*. The RSAI (PSE-1) was 3.5, the RSAI [6] was 0.0001 and the RSAI (OXA-2 [7]) was 3*. The RSAI (TEM-2) was 60*, the RSAI (K1073) was >80 and the RSAI [8] was 0.006*. It also gave an RSAI ([8]; listed as moxalactam) of 0.006, an RSAI (K17) of 3.5 and an RSAI (SHV-1) of 280.

With `O=C(Cc1cccs1)N[C@@H]1C(=O)N2C(C(=O)O)=C(C=Cc3ccc([N+](=O)[O-])cc3[N+](=O)[O-])CS[C@H]12` [Nitrocefin, 3-(2,4-dinitrostyryl)-(6R,7R)-7-(2-thienylacetamido)ceph-3-em-4-carboxylic acid] the Km [9] was 34.8 µM, the “cleavage of chromogenic substrate by the enzyme” value (OXA-1 [10]) was “cleaved” and the Km (OXA-2 [11]) was < 9.68 µM.
